This is an account of results in US6713499B2, “7-Amino-benzothiazole derivatives” (Hoffman-La Roche Inc., priority 2001, dated 2004).

T1 sequence (P29274 whole entry): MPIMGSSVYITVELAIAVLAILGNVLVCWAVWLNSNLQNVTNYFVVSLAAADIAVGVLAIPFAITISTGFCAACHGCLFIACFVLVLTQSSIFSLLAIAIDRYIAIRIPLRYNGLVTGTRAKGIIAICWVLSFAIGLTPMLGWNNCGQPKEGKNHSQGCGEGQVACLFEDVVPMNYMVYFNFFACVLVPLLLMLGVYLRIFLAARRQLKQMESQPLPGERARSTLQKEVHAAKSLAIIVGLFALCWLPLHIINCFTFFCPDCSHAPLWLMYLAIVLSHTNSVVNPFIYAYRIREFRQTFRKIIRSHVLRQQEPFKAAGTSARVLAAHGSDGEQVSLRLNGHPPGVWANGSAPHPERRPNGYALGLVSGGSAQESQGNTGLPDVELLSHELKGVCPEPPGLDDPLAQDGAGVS

The first test has as its target T1, human adenosine A2A receptor (Homo sapiens, UniProt P29274).
T1 construct: expressed in transfected cells; host or cells: CHO cells, Semliki Forest virus expression system; washed membrane pellet used
The experiment in a line: [3H]-SCH-58261 binding assay on membranes of CHO cells expressing the human adenosine A2A receptor. The following applies: [3H]-SCH-58261 (1 nM) displacement, CHO cell membranes, SPA beads, 1 hour at room temperature; Ki by Cheng-Prussoff equation. As for the experimental part:
Human Adenosine A2A Receptor
The human adenosine A2A receptor was recombinantly expressed in chinese hamster ovary (CHO) cells using the semliki forest virus expression system. Cells were harvested, washed twice by centrifugation, homogenised and again washed by centrifugation. The final washed membrane pellet was suspended in a Tris (50 mM) buffer containing 120 mM NaCl, 5 mM KCl, 2 mM CaCl2 and 10 mM MgCl2 (pH 7.4) (buffer A). The [3H]-SCH-58261 (Dionisotti et al., 1997, Br J Pharmacol 121, 353; 1 nM) binding assay was carried out in 96-well plates in the presence of 2.5 μg of membrane protein, 0.5 mg of Ysi-poly-1-lysine SPA beads and 0.1 U adenosine deaminase in a final volume of 200 μl of buffer A. Non-specific binding was defined using xanthine amine congener (XAC; 2 μM). Compounds were tested at 10 concentrations from 10 μM-0.3 nM. All assays were conducted in duplicate and repeated at least two times. Assay plates were incubated for 1 hour at room temperature before centrifugation and then bound ligand determined using a Packard Topcount scintillation counter. IC50 values were calculated using a non-linear curve fitting program and Ki values calculated using, the Cheng-Prussoff equation.
As for `COc1ccc(N(C)C2CCOCC2)c2sc(NC(=O)c3ccnc(N4CCOCC4)c3)nc12` [Example 38, N-{4-Methoxy-4-[methyl-(tetrahydro-pyran-4-yl)-amino]-benzothiazol-2-yl}-2-morpholin-4-yl-isonicotinamide], the “hA2 (pKi)” value worked out at 7.33.

The test is the same for the next values; noted with them: [3H]-SCH-58261 (1 nM) displacement, CHO cell membranes, SPA beads, 1 hour at room temperature; Ki by Cheng-Prussoff equation; read-out: hA2 (pKi) (converted).
As for `COCCN(C)c1ccc(OC)c2nc(NC(=O)c3ccccc3)sc12` [Example 1, N-{4-Methoxy-7-[(2-methoxy-ethyl)-methyl-amino]-benzothiazol-2-yl}-benzamide], the Ki is 52.5 nM.

For the molecule `COCCN(C)c1ccc(OC)c2nc(NC(=O)c3ccc(F)cc3)sc12` [Example 2, 4-Fluoro-N-{4-methoxy-7-[(2-methoxy-ethyl)-methyl-amino]-benzothiazol-2-yl}-benzamide], the Ki is 38 nM.

For the molecule `COCCN(C)c1ccc(OC)c2nc(NC(=O)c3ccc(CCl)cc3)sc12` [Example 3, 4-Chloromethyl-N-{4-methoxy-7-[(2-methoxy-ethyl)-methyl-amino]-benzothiazol-2-yl}-benzamide], the Ki is 37.2 nM. The same measure, in the same setting: then `COCCN(C)c1ccc(OC)c2nc(NC(=O)c3ccnc(N4CCOCC4)c3)sc12` [Example 6, N-{4-Methoxy-7-[(2-methoxy-ethyl)-methyl-amino]-benzothiazol-2-yl}-2-morpholin-4-yl-isonicotinamide], with 52.5 nM; and `COc1ccc(N(Cc2ccc(C)cc2)C(C)=O)c2sc(NC(=O)c3ccccc3)nc12` [Example 10, N-{7-[Acetyl-(4-methyl-benzyl)-amino]-4-methoxy-benzothiazol-2-yl}-benzamide], with 11.5 nM. For the molecule `COc1ccc(N(C)C)c2sc(NC(=O)c3ccc(F)cc3)nc12` [Example 12, N-(7-Dimethylamino-4-methoxy-benzothiazol-2-yl)-4-fluoro-benzamide], the Ki is 74.1 nM. Same read-out and setting: then `COc1ccc(N(C)Cc2ccccc2)c2sc(NC(=O)c3ccc(F)cc3)nc12` [Example 14, N-[7-(Benzyl-methyl-amino)-4-methoxy-benzothiazol-2-yl]-4-fluoro-benzamide], with 38.9 nM; and `COc1ccc(N(C)Cc2ccccn2)c2sc(NC(=O)c3ccc(F)cc3)nc12` [Example 15, 4-Fluoro-N-[4-methoxy-7-(methyl-pyridin-2-ylmethyl-amino)-benzothiazol-2-yl]-benzamide], with 61.7 nM.

In the case of `COc1ccc(N(C)Cc2ccccc2)c2sc(NC(=O)c3ccnc(C)c3)nc12` [Example 16, N-[7-(Benzyl-methyl-amino)-4-methoxy-benzothiazol-2-yl]-2-methyl-isonicotinamide], the Ki is 15.5 nM.

Regarding `COc1ccc(N(C)CC(=O)N(C)C)c2sc(NC(=O)c3ccc(F)cc3)nc12` [Example 17, N-[7-(Dimethylcarbamoylmethyl-methyl-amino)-4-methoxy-benzothiazol-2-yl]-4-fluoro-benzamide], the Ki was 60.3 nM. Regarding `COc1ccc(N(C)C(C)=O)c2sc(NC(=O)c3ccc(F)cc3)nc12` [Example 19, N-[7-(Acetyl-methyl-amino)-4-methoxy-benzothiazol-2-yl]-4-fluoro-benzamide], the Ki was 13.2 nM. Regarding `CCN(CC(=O)N(C)C)c1ccc(OC)c2nc(NC(=O)c3ccc(F)cc3)sc12` [Example 20, N-[7-(Dimethylcarbamoylmethyl-ethyl-amino)-4-methoxy-benzothiazol-2-yl]-4-fluoro-benzamide], the Ki was 61.7 nM.

For `CCN(C(C)=O)c1ccc(OC)c2nc(NC(=O)c3ccc(F)cc3)sc12` [Example 21, N-[7-(Acetyl-ethyl-amino)-4-methoxy-benzothiazol-2-yl]-4-fluoro-benzamide], the Ki is 10 nM.

With `COc1ccc(N(Cc2ccccc2)C(C)=O)c2sc(NC(=O)c3ccc(F)cc3)nc12` [Example 24, N-[7-(Acetyl-benzyl-amino)-4-methoxy-benzothiazol-2-yl]-4-fluoro-benzamide], the Ki is 10.7 nM. For `COc1ccc(N(Cc2ccccc2)C(C)=O)c2sc(NC(=O)c3ccnc(Br)c3)nc12` [Example 25, N-[7-(Acetyl-benzyl-amino)-4-methoxy-benzothiazol-2-yl]-2-bromo-isonicotinamide], the Ki is 52.5 nM. On the same count and under the same terms, then `COCCN(C(C)=O)c1ccc(OC)c2nc(NC(=O)c3ccc(F)cc3)sc12` [Example 26, N-{7-[Acetyl-(2-methoxy-ethyl)-amino]-4-methoxy-benzothiazol-2-yl}-4-fluoro-benzamide], with 17.8 nM; and `COc1ccc(CN(C)c2ccc(OC)c3nc(NC(=O)c4ccc(F)cc4)sc23)cc1` [Example 28, 4-Fluoro-N-{4-methoxy-7-[(4-methoxy-benzyl)-methyl-amino]-benzothiazol-2-yl}-benzamide], with 49 nM; and `COc1ccc(CN(C)c2ccc(OC)c3nc(NC(=O)c4ccnc(C)c4)sc23)cc1` [Example 30, N-{4-Methoxy-7-[(4-methoxy-benzyl)-methyl-amino]-benzothiazol-2-yl}-2-methyl-isonicotinamide], with 26.3 nM. The same measure, in the same setting: then `COc1ccc(N(C)Cc2ccccc2)c2sc(NC(=O)c3ccnc(Br)c3)nc12` [Example 32, N-[7-(Benzyl-methyl-amino)-4-methoxy-benzothiazol-2-yl]-2-bromo-isonicotinamide], with 33.1 nM; and `COc1ccc(N(C)Cc2ccccc2)c2sc(NC(=O)c3ccnc(N4CCOCC4)c3)nc12` [Example 35, N-[7-(Benzyl-methyl-amino)-4-methoxy-benzothiazol-2-yl]-2-morpholin-4-yl-isonicotinamide], with 11 nM; and `COc1ccc(N(C)C2CCOCC2)c2sc(NC(=O)c3ccc(F)cc3)nc12` [Example 37, 4-Fluoro-N-{4-methoxy-7-[methyl-(tetrahydro-pyran-4-yl)-amino]-benzothiazol-2-yl}-benzamide], with 56.2 nM.
